These results are taken from ChEMBL document CHEMBL3994630, “Antiparasitic lethality of sulfonamidebenzamides in kinetoplastids” (Bioorg Med Chem Lett, 2017).

Each structure is given as a SMILES string. pEC50: −log10 of the molar value. Active and inactive are the calls of the source. The calls are words filed in the database; no cut-off is given here. Bounds are passed on as bounds.

The subject of data set [1] is Trypanosoma brucei. As to the kind of experiment: Antitrypanosomal activity against Trypanosoma brucei 90-13 bloodstream forms after 72 hrs by CellTiter-Blue assay. It is filed as functional. The settings on record: 90-13, 72 h. (The colour change of resazurin is a common sign of viable cells or microbes.)
Data set [2] is described as follows: Selectivity index, ratio of EC50 for cytotoxicity against human IMR90 cells to EC50 for antitrypanosomal activity against Trypanosoma brucei 90-13 bloodstream forms. The format is toxicity, cell-based. To be noted: read-out: Ratio EC50.
The next data set deals with IMR-90. Briefly: Cytotoxicity against human IMR90 cells after 44 to 46 hrs by CellTiter-Blue assay. The format is cell-based.
Data set [3] is described as follows: Selectivity index, ratio of EC50 for cytotoxicity against human IMR90 cells to EC50 for anti-parasitic activity against Leishmania amazonensis promastigotes. It is filed as toxicity, cell-based. The settings on record: read-out: Ratio EC50.
The subject of a further data set is Leishmania amazonensis. As to the kind of experiment: Anti-parasitic activity against Leishmania amazonensis promastigotes after 44 hrs by CellTiter-Blue assay. It is filed as functional.
In data set [4] the test system is Trypanosoma brucei. Briefly: Induction of apoptosis in Trypanosoma brucei 90-13 bloodstream forms at EC50 after 6 hrs by Annexin-V-FITC/propidium iodide staining based flow cytometry (reference value: 47.3%). It is filed as functional. For orientation: A flow cytometer gives signals particle by particle.
In data set [5] the test system is Trypanosoma brucei. Briefly: Induction of apoptosis in Trypanosoma brucei 90-13 bloodstream forms assessed as dead cells at EC50 after 6 to 24 hrs by Annexin-V-FITC/propidium iodide staining based flow cytometry (reference value: 49.7%). It is filed as functional.
The test system of data set [6] is Trypanosoma brucei. Briefly: Induction of apoptosis in Trypanosoma brucei 90-13 bloodstream forms after 6 to 24 hrs by Annexin-V-FITC/propidium iodide staining based flow cytometry. The format is functional.
For data set [7], the system named is Trypanosoma brucei. Briefly: Induction of apoptosis in Trypanosoma brucei 29-13 procyclic forms after 6 to 24 hrs by Annexin-V-FITC/propidium iodide staining based flow cytometry (reference value: 658 RFU). It is filed as functional.

`CC1(C)CCN(S(=O)(=O)c2ccc(NC(=O)c3ccc(C(F)(F)F)o3)cc2)CC1`: the values for the pEC50 with Trypanosoma brucei [1], in the data set on IMR-90 and in the data set on Leishmania amazonensis were 5.12, below 4.60 and 4.97, respectively. The values for the selectivity ratio in [2] and in data set [3] were above 3 and above 2, respectively.

For `O=C(Nc1ccc(S(=O)(=O)c2ccccc2)cc1)c1ccc([N+](=O)[O-])o1`, the pEC50 in the data set with Trypanosoma brucei [1] was 6.96; with IMR-90 it was below 4.60; with Leishmania amazonensis, 5.37. Moreover, the selectivity ratio in [2] is above 227; in data set [3] it was above 6.

Consider `CC(C)(C)C1CCN(S(=O)(=O)c2ccc(NC(=O)c3ccc([N+](=O)[O-])o3)cc2)CC1`, for which the figures for the pEC50 with Trypanosoma brucei [1], in the data set with IMR-90 and in the data set on Leishmania amazonensis were 7.52, below 4.60 and 5.85, respectively. Moreover, the selectivity ratio in data set [2] was above 833; in data set [3], above 18. For the same molecule, the Activity with Trypanosoma brucei [4] was found to be 82%; in the data set with Trypanosoma brucei [5] it was 48.2%.

In the case of `CC1(C)CCN(S(=O)(=O)c2ccc(NC(=O)c3ccc([N+](=O)[O-])o3)cc2)CC1`, the pEC50 is 7.05 in the data set with Trypanosoma brucei [1], below 4.60 with IMR-90 and 6.55 in the data set on Leishmania amazonensis. The values for the selectivity ratio in data set [2] and in [3] were above 278 and above 89, respectively.

As to `O=C(Nc1ccc(S(=O)(=O)N2CCC(O)CC2)cc1)c1ccc([N+](=O)[O-])o1`, the pEC50 was 6.51 in the data set with Trypanosoma brucei [1], below 4.60 in the data set with IMR-90 and 5.36 in the data set on Leishmania amazonensis. Also, the selectivity ratio is above 81 in data set [2] and above 6 in [3]. Moreover, the outcome with Trypanosoma brucei [6] was Active. The molecule also yielded an Activity in the data set on Trypanosoma brucei [7] of 849 RFU.

`O=C(Nc1ccc(S(=O)(=O)C2CCCCC2)cc1)c1ccc([N+](=O)[O-])o1`: the figures for the pEC50 with Trypanosoma brucei [1], with IMR-90 and in the data set on Leishmania amazonensis were 6.31, below 4.60 and 5.80, respectively. Further, the selectivity ratio is above 51 in data set [2] and above 16 in data set [3].

Consider `O=C(Nc1ccc(S(=O)(=O)N2CCOCC2)cc1)c1cccs1`, for which the pEC50 in the data set with Trypanosoma brucei [1] was below 5.00; in the data set with IMR-90 it was below 4.60; with Leishmania amazonensis, below 4.60.

`CC1(C)CCN(S(=O)(=O)c2cccc(NC(=O)c3ccco3)c2)CC1`: the pEC50 is 5.29 with Trypanosoma brucei [1], below 4.60 with IMR-90 and 5.92 in the data set with Leishmania amazonensis. The selectivity ratio in data set [2] was above 5; in data set [3] it was above 21.

As for `O=C(Nc1ccc(S(=O)(=O)N2CCC3(CCCCC3)CC2)cc1)c1ccc([N+](=O)[O-])s1`, the pEC50 with Trypanosoma brucei [1] was 7.70; in the data set with IMR-90, below 4.60; with Leishmania amazonensis, 7.00. Also, the selectivity ratio is above 1250 in data set [2] and above 250 in data set [3].

In the case of `O=C(Nc1ccc(S(=O)(=O)N2CCC(Cl)CC2)cc1)c1ccc([N+](=O)[O-])o1`, the pEC50 in the data set on Trypanosoma brucei [1] was 7.10; in the data set on IMR-90, below 4.60; in the data set on Leishmania amazonensis it was 5.10. The results for the selectivity ratio in [2] and in [3] were above 313 and above 3, respectively.

Turning to `CC1(C)CCN(S(=O)(=O)c2ccc(NC(=O)c3ccc([N+](=O)[O-])s3)cc2)CC1`, the pEC50 with Trypanosoma brucei [1] is 8.00; with IMR-90, below 4.60; in the data set on Leishmania amazonensis, 7.00. Besides, the selectivity ratio is above 2500 in [2] and above 250 in data set [3].

In the case of `O=C(Nc1ccc(S(=O)(=O)N2CCOCC2)cc1)c1ccc([N+](=O)[O-])s1`, the pEC50 in the data set with Trypanosoma brucei [1] was 7.22; with IMR-90, below 4.60; in the data set with Leishmania amazonensis, 5.89. In addition, the results for the selectivity ratio in data set [2] and in data set [3] were above 417 and above 19, respectively.

For `CC(C)(C)C1CCN(S(=O)(=O)c2ccc(NC(=O)c3ccc([N+](=O)[O-])s3)cc2)CC1`, the pEC50 with Trypanosoma brucei [1] is 7.52; in the data set with IMR-90, below 4.60; in the data set on Leishmania amazonensis, 7.00. Also, the selectivity ratio was above 833 in data set [2] and above 250 in data set [3].

In the case of `CC1CS(=O)(=O)CCN1/N=C/c1ccc([N+](=O)[O-])o1` (configuration not stated) [NIFURTIMOX], the pEC50 in the data set on Trypanosoma brucei [1] is 5.12; in the data set on IMR-90 it was below 4.60; with Leishmania amazonensis, 6.10.

In the case of `O=C(Nc1ccc(S(=O)(=O)N2CCOCC2)cc1)c1ccccc1`, the pEC50 is below 5.00 in the data set with Trypanosoma brucei [1], below 4.60 with IMR-90 and below 4.60 with Leishmania amazonensis.

With `O=C(Nc1ccc(S(=O)(=O)N2CCCCC2)cc1)c1ccc([N+](=O)[O-])o1`, the pEC50 with Trypanosoma brucei [1] is 6.66; in the data set on IMR-90, below 4.60; in the data set on Leishmania amazonensis, 4.86. Further, the selectivity ratio is above 114 in [2] and above 2 in data set [3].

As to `Cc1ccc(C(=O)Nc2ccc(S(=O)(=O)N3CCOCC3)cc2)o1`, the pEC50 was below 5.00 in the data set with Trypanosoma brucei [1], below 4.60 with IMR-90 and below 4.60 in the data set with Leishmania amazonensis.

For `CC1CCN(S(=O)(=O)c2ccc(NC(=O)c3ccc([N+](=O)[O-])o3)cc2)CC1`, the pEC50 in the data set with Trypanosoma brucei [1] is 6.92; with IMR-90, below 4.60; in the data set on Leishmania amazonensis, 5.11. Also, the selectivity ratio in data set [2] is above 208; in data set [3], above 3.

Take `O=C(Nc1ccc(S(=O)(=O)C2=CCOC=C2)cc1)c1ccc([N+](=O)[O-])o1`: the negative-log EC50 (pEC50) in the data set on Trypanosoma brucei [1] is 6.28; with IMR-90, below 4.60; in the data set with Leishmania amazonensis, 6.52. The selectivity ratio in [2] is above 47; in data set [3], above 83.

For the molecule `N=C1CCN(S(=O)(=O)c2ccc(NC(=O)c3ccc([N+](=O)[O-])o3)cc2)CC1`, the pEC50 is 6.14 in the data set on Trypanosoma brucei [1], below 4.60 in the data set on IMR-90 and 4.98 with Leishmania amazonensis. For the same molecule, the selectivity ratio is above 34 in data set [2] and above 2 in data set [3].

With `CC1(C)CCN(S(=O)(=O)c2cccc(NC(=O)c3cccc([N+](=O)[O-])c3)c2)CC1`, the results for the pEC50 with Trypanosoma brucei [1], with IMR-90 and in the data set with Leishmania amazonensis were 4.98, below 4.60 and 5.52, respectively. For the same molecule, the selectivity ratio in data set [2] was above 2; in data set [3], above 8.

With `O=C(Nc1ccc(S(=O)(=O)N2CCOCC2)cc1)c1ccc([N+](=O)[O-])o1`, the pEC50 is 6.34 with Trypanosoma brucei [1], below 4.60 with IMR-90 and 5.52 in the data set on Leishmania amazonensis. Also, the selectivity ratio is above 54 in data set [2] and above 8 in [3].

`O=C(Nc1ccc(S(=O)(=O)N2CCOCC2)cc1)c1ccco1`: the pEC50 in the data set on Trypanosoma brucei [1] was below 5.00; in the data set on IMR-90 it was below 4.60; with Leishmania amazonensis, below 4.60.

Turning to `O=C(Nc1ccc(S(=O)(=O)N2CCC(F)CC2)cc1)c1ccc([N+](=O)[O-])o1`, the values for the pEC50 with Trypanosoma brucei [1], in the data set with IMR-90 and in the data set with Leishmania amazonensis were 6.38, below 4.60 and 5.13, respectively. The selectivity ratio in data set [2] was above 60; in data set [3], above 3.

On to `O=C(Nc1ccc(S(=O)(=O)N2CCOCC2)cc1)c1ccc([N+](=O)[O-])cc1`, for which the pEC50 was below 5.00 in the data set on Trypanosoma brucei [1], below 4.60 with IMR-90 and below 4.60 in the data set with Leishmania amazonensis.

As for `CC1(C)CCN(S(=O)(=O)c2ccc(NC(=O)c3cccc([N+](=O)[O-])c3)cc2)CC1`, the pEC50 in the data set on Trypanosoma brucei [1] was 5.18; in the data set on IMR-90, below 4.60; in the data set on Leishmania amazonensis it was 4.88. For the same molecule, the selectivity ratio in [2] was above 4; in data set [3], above 2.

With `O=C(Nc1cccc(S(=O)(=O)N2CCOCC2)c1)c1ccc([N+](=O)[O-])o1`, the pEC50 in the data set with Trypanosoma brucei [1] was 5.83; in the data set with IMR-90 it was below 4.60; in the data set with Leishmania amazonensis, 6.05. In addition, the selectivity ratio is above 17 in [2] and above 28 in data set [3].

Regarding `O=C(Nc1ccc(S(=O)(=O)N2CCC3(CCCCC3)CC2)cc1)c1ccc([N+](=O)[O-])o1`, the results for the pEC50 in the data set with Trypanosoma brucei [1], in the data set with IMR-90 and with Leishmania amazonensis were 7.52, below 4.60 and 5.82, respectively. Further, the results for the selectivity ratio in data set [2] and in [3] were above 833 and above 17, respectively.

For `CC1(C)CCN(S(=O)(=O)c2cccc(NC(=O)c3ccc([N+](=O)[O-])s3)c2)CC1`, the pEC50 in the data set on Trypanosoma brucei [1] was 7.35; in the data set on IMR-90, below 4.60; in the data set with Leishmania amazonensis it was 5.89. Also, the selectivity ratio was above 556 in [2] and above 19 in data set [3].

As for `CC1(C)CCN(S(=O)(=O)c2cccc(NC(=O)c3ccc([N+](=O)[O-])o3)c2)CC1`, the figures for the pEC50 in the data set on Trypanosoma brucei [1], in the data set with IMR-90 and in the data set on Leishmania amazonensis were 6.49, below 4.60 and 7.00, respectively. Besides, the results for the selectivity ratio in data set [2] and in data set [3] were above 78 and above 250, respectively.

What is called pEC50 is the EC50 on a negative log10 scale, so that one unit is a factor of ten. The low end stands for a large EC50, the high end for a small EC50.
